Results from the NIST ThermoML archive (doi:10.1021/je800463k).

Experiment: mn = molality of the nth substance listed, in mol/kg
Conditions: 101 kPa, Liquid; for electrical conductivity: Frequency=0.001 MHz, Alternating current cell with electrodes; for speed of sound: Frequency=2 MHz; for mass density: Pycnometric method

O=[N+]([O-])[O-].O=[N+]([O-])[O-].[Mg+2] [magnesium nitrate] + CO
Conditions	electrical conductivity [S/m]	mass density [kg/m3]	speed of sound [m/s]	viscosity [mPa·s]
288.15 K, m1 = 0.0082	–	–	1141.9	0.6479
288.15 K, m1 = 0.0545	–	–	1145.7	0.69
288.15 K, m1 = 0.0667	0.393	–	1147.2	0.7149
288.15 K, m1 = 0.1047	0.5164	–	1152.3	0.743
288.15 K, m1 = 0.2776	0.9691	–	1170.8	0.8665
288.15 K, m1 = 0.4024	1.214	–	1182.6	1.016
288.15 K, m1 = 0.4555	1.267	–	1188.5	1.06
288.15 K, m1 = 0.6276	1.489	–	1203	1.408
288.15 K, m1 = 0.782	1.639	–	1221.6	1.556
288.15 K, m1 = 0.881	1.678	–	1225.4	1.575
288.15 K, m1 = 0.9116	1.69	–	1231.2	1.679
288.15 K, m1 = 1.004	1.744	–	1245.4	1.828
288.15 K, m1 = 1.259	1.772	–	1266.8	2.586
288.15 K, m1 = 1.492	1.746	–	1292.2	3.198
288.15 K, m1 = 1.71	1.738	–	1311.9	3.978
288.15 K, m1 = 1.875	1.698	–	1320.1	4.642
293.15 K, m1 = 0.0082	0.1341	–	1123.3	0.6014
293.15 K, m1 = 0.0545	0.3807	–	1129	0.6412
293.15 K, m1 = 0.0667	0.412	–	1130.5	0.6621
293.15 K, m1 = 0.1047	0.5415	–	1134.7	0.6872
293.15 K, m1 = 0.2776	1.021	–	1154.7	0.7989
293.15 K, m1 = 0.4024	1.277	–	1165.8	0.9313
293.15 K, m1 = 0.4555	1.341	–	1172.6	0.9778
293.15 K, m1 = 0.6276	1.584	–	1187.3	1.271
293.15 K, m1 = 0.782	1.752	–	1205.7	1.415
293.15 K, m1 = 0.881	1.797	–	1212	1.429
293.15 K, m1 = 0.9116	1.811	–	1215.2	1.517
293.15 K, m1 = 1.004	1.873	–	1229.3	1.65
293.15 K, m1 = 1.259	1.917	–	1250.2	2.306
293.15 K, m1 = 1.492	1.9	–	1275.7	2.833
293.15 K, m1 = 1.71	1.902	–	1295.5	3.5
293.15 K, m1 = 1.875	1.866	–	1304	4.058
298.15 K, m1 = 0.0082	0.1401	–	1108.5	0.5595
298.15 K, m1 = 0.0545	0.3953	–	1115.7	0.5957
298.15 K, m1 = 0.0667	0.4305	–	1113.6	0.6148
298.15 K, m1 = 0.1047	0.5657	–	1118.5	0.6361
298.15 K, m1 = 0.2776	1.073	–	1138.2	0.7381
298.15 K, m1 = 0.4024	1.343	–	1149	0.8609
298.15 K, m1 = 0.4555	1.416	–	1155.9	0.8966
298.15 K, m1 = 0.6276	1.68	–	1171.1	1.146
298.15 K, m1 = 0.782	1.866	–	1188.8	1.287
298.15 K, m1 = 0.881	1.918	–	1195.8	1.301
298.15 K, m1 = 0.9116	1.933	–	1198.8	1.369
298.15 K, m1 = 1.004	2.005	–	1212.9	1.491
298.15 K, m1 = 1.259	2.065	–	1232.2	2.078
298.15 K, m1 = 1.492	2.06	–	1259.5	2.541
298.15 K, m1 = 1.71	2.073	–	1279.9	3.094
298.15 K, m1 = 1.875	2.039	–	1288.1	3.556
300.6 K, m1 = 0.1047	–	798.24	–	–
300.7 K, m1 = 0.6276	–	850.07	–	–
300.8 K, m1 = 0.881	–	871.54	–	–
301.1 K, m1 = 1.492	–	934.05	–	–
